Measurements taken from patent publication US6833358B1, “Lacrimal secretion promoters or eye drops for treating keratoconjunctival failure containing as the active ingredient natriuretic peptides” (Santen Pharmaceutical Co., Ltd., priority 1998, dated 2004).
No end group written: not given here.

Tested on: Male Japanese white rabbits
Assay: Schirmer test paper method: amount of lacrimal fluid after instillation
Format: in vivo, rabbit
Protocol: The Schirmer test paper method, which is used for measurement of an amount of a human lacrimal fluid, is one method of measuring a change in an amount of a lacrimal fluid of a normal animal in instilling a drug. In the present invention, an amount of a lacrimal fluid in instilling the natriuretic peptide was measured by using the Schirmer test paper method, and an effect of the natriuretic peptide on a rate of lacrimal secretion was studied.
Male Japanese white rabbits, body weight; 1.8 to 2.2 kg, were used for the experiment.
The natriuretic peptide (0.56 mg) was dissolved in sterile purified water to prepare a 0.1% solution just before using. This solution is referred to as a solution of a test drug.
The solution of the test drug (50 μl) was instilled into a left eye once. […]
Amounts of the lacrimal fluid were measured using Schirmer test paper with respect to the eye to which the drug was administered and the eye to which no drug was administered before administering the drug and after a prescribed period of time from the instillation. […] One minute later, length of a wet portion (Schirmer value, mm) of the test paper was measured from the fold. […]
The action of the solution of the test drug on the rate of the lacrimal secretion at a time of T hours after the instillation is represented by the increment of the lacrimal fluid (mm) determined by the following equation. […]

Substance: Human CNP-22: C-type natriuretic peptide (human) consisting of 22 amino acids; purchased from Peptide Research Institute (GLSKGCFGLKLDRIGSMSGLGC; ends and bridges not checked; cysteine pairing not given here; UniProt P23582 105-126, looked up)
- Increment of lacrimal fluid (mm) (one hour after administering drug, 0.1% solution, 50 μl instilled once into left eye, vehicle-corrected Schirmer value, average of six samples per group): +1.33 mm
- effect of promoting the lacrimal secretion (rabbits, instillation, result in words): excellent effects of promoting the lacrimal secretion
